{
  "source": "paper PMC4669759",
  "about": "(Cell Death & Disease, 2015)",
  "format_in_all_cases": "cell-based",
  "key": {"MCL-1–BIM complexes": {"target": "T1, MCL-1–BIM complexes (Homo sapiens, UniProt Q07820)", "T1 construct": "endogenous in cells; host or cells: H929", "T1 sequence (Q07820 whole entry, one chain of several)": "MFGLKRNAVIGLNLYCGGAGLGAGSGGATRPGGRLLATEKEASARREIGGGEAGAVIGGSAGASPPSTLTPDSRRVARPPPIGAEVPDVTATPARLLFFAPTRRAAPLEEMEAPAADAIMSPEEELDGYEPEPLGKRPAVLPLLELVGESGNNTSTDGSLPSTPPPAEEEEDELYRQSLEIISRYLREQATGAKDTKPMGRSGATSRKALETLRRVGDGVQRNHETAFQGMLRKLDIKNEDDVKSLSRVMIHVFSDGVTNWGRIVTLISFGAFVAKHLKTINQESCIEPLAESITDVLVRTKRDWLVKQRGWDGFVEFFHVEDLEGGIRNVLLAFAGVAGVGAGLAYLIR", "test": "MCL-1/BIM co-immunoprecipitation and immunoblot in H929 cells", "settings": "10 μM, 4 h", "description": "(§1) Figure 1 MCL-1 levels are elevated in cancer cells after treatment with MCL-1-binding small molecules. (a) H929 multiple myeloma cells were treated for 4 h with 10 μM A-1210477 before immunopreciptating MCL-1. […] A control H929 lysate was run in lane 1, and an immunoprecipitation with a non-specific antibody (Ig) was run in lane 2. The positions of molecular weight markers (specified in kiloDaltons) are indicated on the left. (b) HCC-1806 breast cancer cells were incubated with increasing concentrations of A-1210477 (0.1, 0.5, 1, 5, 10, 15, or 20 μM) or bortezomib (2, 10, or 50 nM) for 8 h before assessing MCL-1 and NOXA levels by immunoblotting. β-Actin was probed as a protein loading control. The lower graph depicts reverse transcriptase-PCR quantification of MCL1 mRNA from HCC-1806 cells treated for 8 h with similar concentrations of A-1210477. (c) HCC-1806 cells were incubated with increasing concentrations (0.1, 0.5, 1, 5, 10, and 20 μM) of A-954248, A-962653, or A-1248767 for 24 h before assessing MCL-1 and BCL-XL levels by immunoblotting. β-Actin was probed as a protein loading control\nAntibodies for MCL-1-BIM co-immunoprecipitation studies were obtained from Thermo Fisher Scientific (Waltham, MA, USA; anti-MCL-1 clone RC13) and Abcam (Cambridge, MA, USA; anti-BIM clone Y36). […]"}, "NOXA": {"test_system": "NOXA", "test": "NOXA levels by immunoblotting in HCC-1806 cells", "settings": "8 h, up to 20 μM", "description": "as §1\nCells were scraped into cold PBS, pelleted, and then resuspended in 100–200 μl ice-cold insect cell lysis buffer supplemented with protease inhibitors (BD Biosciences Pharmingen, San Diego, CA, USA). Cells were lysed by sonication, and the debris was cleared in a microcentrifuge. […]"}, "BCL-XL–BAD complexes": {"target": "T2, BCL-XL–BAD complexes (Homo sapiens, UniProt Q07817)", "T2 construct": "expressed in transfected cells; host or cells: T-REx-293, bicistronic expression module integrated at a single genomic site", "T2 sequence (Q07817 whole entry, one chain of several)": "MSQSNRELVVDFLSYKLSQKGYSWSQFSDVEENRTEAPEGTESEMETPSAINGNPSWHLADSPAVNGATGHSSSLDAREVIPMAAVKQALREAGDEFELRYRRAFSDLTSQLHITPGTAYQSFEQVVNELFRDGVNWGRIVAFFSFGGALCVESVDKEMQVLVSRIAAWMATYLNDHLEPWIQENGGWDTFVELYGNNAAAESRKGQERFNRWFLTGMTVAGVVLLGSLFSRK", "test": "Live cell redistribution assay, eGFP-BCL-XL and mCherry-BAD, T-REx-293 cells", "settings": "10 μM, 300 min", "description": "To further rule out potential artifacts associated with lysate detergents that can influence interactions between BCL-2 family proteins,[47] we employed a recently described real-time imaging method to assess the effects on BCL-2 family complexes in live cells.[48] Briefly, interacting pairs of BCL-2 family proteins are expressed as fluorescent fusion proteins at stoichiometric levels from a bicistronic expression module integrated into a single site of the genome in T-REx-293 cells. […]\nFigure 3 A-1210477 inhibits MCL-1-BIM complexes in live cells. […] The decrease in amount of mCherry-BH3 protein localized to the mitochondria was quantified as a function of time as described in the Materials and Methods, normalized to DMSO control, and fitted to a single exponential decay. Each data point represents the mean change in intensity calculated from 10 fields of view, with error bars indicating the S.E.M. (b) T-REx-293 cells stably expressing eGFP-MCL-1(3B) and mCherry-BIMS(2A)ΔC were treated with 50 μM ABT-737 or increasing concentrations (1–25 μM) A-1210477 for 100 min. The decrease in amount of mCherry-BIMS(2A)ΔC localized to the mitochondria was quantified as in panel (a). (c) Representative fluorescence microscopic images of T-REx-293 cells stably expressing eGFP-BCL-2 family and interacting mCherry-BH3-only proteins before and after 300 min of treatment with 10 μM A-1210477 or (d) ABT-737. […]"}},
  "data": [
    {"smiles": "Cc1nn(C)c(COc2ccc(N3CCN(S(=O)(=O)N(C)C)CC3)cc2)c1-c1cccc2c(CCCOc3cccc4ccccc34)c(C(=O)O)n(CCN3CCOCC3)c12", "note": "[A-1210477]", "values": [
      {"measurement": "BIM co-immunoprecipitated with MCL-1 antibody", "setting": "MCL-1–BIM complexes", "result": "reduce the amount of BIM co-immunoprecipitated"},
      {"measurement": "effect on NOXA levels", "setting": "NOXA", "result": "no effect"},
      {"measurement": "redistribution of mCherry-BAD associated with BCL-XL", "setting": "BCL-XL–BAD complexes", "result": "no effect"}
    ]}
  ]
}
